Assay results from patent US20250057814A1, “ENDODONTIC BIOFILM-ERADICATION TECHNIQUE UTILIZING A DUAL-SYSTEM INTRACANAL MEDICATION” (priority 2023, published 2025).
Marks after values point to notes of the source that are not given here.

Legend:
E. coli ATCC 25922 = settings: reference 26, cited from earlier work
P. pseudomallei = settings: reference 208, cited from earlier work
S. aureus NCTC 8325-4 = settings: reference 215, cited from earlier work
endodontic lesions = experiment: Intracanal medication of patients with large endodontic lesions, healing evaluated by CBCT and radiograph; assay type: in vivo; settings: 12 months post obturation

**Q.** For `CC1(C)S[C@@H]2[C@H](NC(=O)[C@H](N)c3ccccc3)C(=O)N2[C@H]1C(=O)O` [Ampicillin], which “Concentration effective against biofilm phenotype” value (E. coli ATCC 25922; biofilm, minimal biofilm eradication concentration) is on record?
**A.** 512^b μg/ml

**Q.** And the “MIC of planktonic phenotype” value (E. coli ATCC 25922; planktonic E. coli ATCC 25922)?
**A.** 2 (MIC) μg/ml

**Q.** For `CC(C)(O/N=C(\C(=O)N[C@@H]1C(=O)N2C(C(=O)[O-])=C(C[n+]3ccccc3)CS[C@H]12)c1csc(N)n1)C(=O)O` [Ceftazidime], which “Concentration effective against biofilm phenotype” value (P. pseudomallei; biofilm, concentration required for ~99% reduction) is on record?
**A.** 800^c μg/ml

**Q.** What about the “MBC of planktonic phenotype” value (P. pseudomallei; planktonic P. pseudomallei) of the same compound?
**A.** 8 (MBC) μg/ml

**Q.** What does the source list for `CN[C@H](CC(C)C)C(=O)N[C@H]1C(=O)N[C@@H](CC(N)=O)C(=O)N[C@H]2C(=O)N[C@H]3C(=O)N[C@H](C(=O)N[C@H](C(=O)O)c4cc(O)cc(O)c4-c4cc3ccc4O)[C@H](O)c3ccc(c(Cl)c3)Oc3cc2cc(c3O[C@@H]2O[C@H](CO)[C@@H](O)[C@H](O)[C@H]2O[C@H]2C[C@](C)(N)[C@H](O)[C@H](C)O2)Oc2ccc(cc2Cl)[C@H]1O` [Vancomycin]?
**A.** Concentration effective against biofilm phenotype (S. aureus NCTC 8325-4; biofilm, concentration required for 99% reduction): 20^a μg/ml; MBC of planktonic phenotype (S. aureus NCTC 8325-4; planktonic S. aureus NCTC 8325-4): 2 (MBC) μg/ml

**Q.** With `[Ca+2].[OH-].[OH-]` [calcium hydroxide] as the compound, how does the “change in size of lesion, Example Case No. 3” value (endodontic lesions; tooth 10) read?
**A.** no change in the size of lesion

**Q.** And the “lesion healing, Example Case No. 3 side-by-side comparison” value (endodontic lesions; four weeks of intra-canal medication, teeth 7 and 8 formula, tooth 10 calcium hydroxide)?
**A.** non-healing of the smaller lesion
